Data taken from US20110003849A1, “SOLUBLE EPOXIDE HYDROLASE INHIBITORS, COMPOSITIONS CONTAINING SUCH COMPOUNDS AND METHODS OF TREATMENT” (priority 2008, published 2011).

Each compound was assayed against T1, human sEH enzyme (Homo sapiens, UniProt P34913) (assay: sEH Human Enzyme Assay (fluorescence based enzyme in vitro assay)). Settings: recombinant full length human sEH about 1 nM, fluorescence substrate S7 10 uM, pH7.0, 25° C.; read-out: IC50 [nM] for human sEH enzyme inhibition.
T1 construct: His-tag (N, cleaved yes); made in house; host or cells: E. coli (pET100 vector)
T1 sequence (P34913 1-555): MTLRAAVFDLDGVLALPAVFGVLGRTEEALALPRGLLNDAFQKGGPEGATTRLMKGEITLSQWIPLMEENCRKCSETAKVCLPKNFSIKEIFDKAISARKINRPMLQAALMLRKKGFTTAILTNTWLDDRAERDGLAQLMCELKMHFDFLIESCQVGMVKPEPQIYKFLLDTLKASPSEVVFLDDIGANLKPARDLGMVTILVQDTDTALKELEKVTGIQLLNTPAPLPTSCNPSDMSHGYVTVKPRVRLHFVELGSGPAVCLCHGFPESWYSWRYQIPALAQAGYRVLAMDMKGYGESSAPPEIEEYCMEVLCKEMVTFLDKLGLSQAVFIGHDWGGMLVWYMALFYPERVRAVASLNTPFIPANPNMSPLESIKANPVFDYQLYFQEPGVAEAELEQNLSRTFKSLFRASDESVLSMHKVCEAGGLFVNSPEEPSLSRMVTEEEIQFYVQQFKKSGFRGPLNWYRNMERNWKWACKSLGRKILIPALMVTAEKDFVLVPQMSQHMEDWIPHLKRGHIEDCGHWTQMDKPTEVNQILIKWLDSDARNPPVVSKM
Type: biochemical
From the text: Preparation of Recombinant sEH Human Enzyme
The DNA for expressing sEH was designed based on a […] sEH cDNA, modified to optimize for expression both in E. coli and insect cells. The designed DNA fragment encodes a protein sequence that is identical to full length human sEH, and the DNA was synthesized in vitro. The DNA was then subcloned into the pET100 vector that will generate a fusion protein with an N-terminal His-tag. The recombinant protein was expressed in E. coli. The sEH enzyme was affinity purified by a Ni^++ column. His-tag was removed by Enter Kinase (EK) digestion. The purified enzyme aliquots were frozen and held at −80° C. for later use.
Fluorescence Based Enzyme In Vitro Assay,
For each assay (100 ul), an aliquot of enzymes (about 1 nM final concentration) was incubated with a fluorescence substrate, S7 (10 uM final concentration), in sEH assay buffer (25 mM HEPES, pH7.0, 0.1 mg/ml BSA) in a 96-well plate. The kinetic reaction reading (Ex330/Em465) was conducted using a plate reader, Spectra max (Molecular Devices) at 25° C.

| SMILES | IC50 |
| --- | --- |
| Cc1noc(C2CC3CC2N(C(=O)Nc2ccc(C(F)(F)F)cc2)C3)n1 (stereo not shown) [Example 1] | 7 nM |
| Cc1noc(C2CC3CCC2N(C(=O)Nc2ccc(C(F)(F)F)cc2)C3)n1 (stereo not shown) [Example 2] | 2 nM |
| Cc1noc(C2(C)CC3CCC2N(C(=O)Nc2ccc(C(F)(F)F)cc2)C3)n1 (stereo not shown) [Example 3] | 2 nM |
| CC(c1ccccc1)c1noc(C2CC3CCC2N(C(=O)Nc2ccc(C(F)(F)F)cc2)C3)n1 (stereo not shown) [Example 4] | 8 nM |
| CCc1noc(C2CC3CCC(C2)N3C(=O)Nc2ccc(C(F)(F)F)cc2)n1 (stereo not shown) [Example 5] | 2 nM |
| CN(C)c1noc(C2CC3CCC2N(C(=O)Nc2ccc(C(F)(F)F)cc2)C3)n1 (stereo not shown) [Example 6] | 1 nM |
| CCOc1noc(C2CC3CCC2N(C(=O)Nc2ccc(C(F)(F)F)cc2)C3)n1 (stereo not shown) [Example 7] | 2 nM |
| O=C(Nc1ccc(C(F)(F)F)cc1)N1CC2(c3ccccc3)CCC1CC2 [Example 9] | 1 nM |
| O=C(Nc1ccc(Cl)cc1)N1CC2(c3ccccc3)CCC1C2 (stereo not shown) [Example 10] | 1 nM |
| O=C(Nc1ccc(C(F)(F)F)cc1)N1C2CCC1C(c1cccnc1)C2 (stereo not shown) [Example 11] | 11 nM |
| O=C(Nc1ccc(C(F)(F)F)cc1)N1C2CCC1C(c1cccnc1)C2 (stereo not shown) [Example 12] | 41 nM |
| CN(C)c1noc(C2CC3CCC2N(C(=O)NC2CC2c2ccccc2)C3)n1 (stereo not shown) [Example 13] | 51 nM |
| O=C(NC1CC1c1ccccc1)N1CC2CCC1C(c1nc(C3CC3)no1)C2 (stereo not shown) [Example 14] | 18 nM |
| CCOc1noc(C2CC3CCC2N(C(=O)NC2CC2c2ccccc2)C3)n1 (stereo not shown) [Example 15] | 14 nM |
| Cc1noc(C2(C)CC3CCC2N(C(=O)NC2CC2c2ccccc2)C3)n1 (stereo not shown) [Example 16] | 30 nM |
| CCc1noc(C2CC3CC2N(C(=O)NC2CC2c2ccccc2)C3)n1 (stereo not shown) [Example 17] | 48 nM |
| O=C(NC1CC1c1ccccc1)N1CC2CCC1C(c1nc(C(c3ccccc3)c3ccccc3)no1)C2 (stereo not shown) [Example 18] | 6 nM |
| Cn1cc(-c2noc([C@@H]3C[C@H]4CC[C@H]3CN4C(=O)NC3CC3c3ccccc3)n2)c2ccccc21 (stereo partly shown) [Example 19] | 4 nM |
| Cn1cc(-c2noc(C3(C)CC4CCC3N(C(=O)NC3CC3c3ccccc3)C4)n2)c2ccccc21 (stereo not shown) [Example 20] | 8 nM |
